For ten compounds, EC50 and ED50 results are on record in patent US10792282B2, “Protein kinase C inhibitors and uses thereof” (Rigel Pharmaceuticals, Inc., priority 2013, dated 2020).

SMILES strings stand for the structures. Like-named read-outs stand apart in the source and are kept apart here. A value given as a limit tells only on which side of the number the result lay.

The test system of assay [1] is PKC mediated IL-2 production. Description: IL-2 ELISA, human primary T cell, anti CD3+CD28+ (whole cell functional assay). It is filed as cell-based. The method in brief:
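Anti-CD3/CD28-expanded human primary T cells (100,000/well), pre-incubated 1 h at 37° C with compound, then stimulated on plates coated with 1 μg/ml αCD3 and 5 μg/ml αCD28. Counter assay used 0.5 ng/ml PMA plus 0.1 μM ionomycin (final). Supernatant IL-2 measured by ELISA after 24 h.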

For assay [2], the system named is PLP induced experimental autoimmune encephalomyelitis (EAE). Description: PLP induced experimental autoimmune encephalomyelitis (EAE) model in SJL mice. The following applies: Mus musculus, both pretreatment and treatment dosing. It is filed as in vivo. From the text: EAE is a useful model for multiple sclerosis (MS), an autoimmune disease of the CNS that is caused by immune-cell infiltration of the CNS white matter. Inflammation and subsequent destruction of myelin cause progressive paralysis. Like the human disease, EAE is associated with peripheral activation of T cells autoreactive with myelin proteins, such as myelin basic protein (MBP), proteolipid protein (PLP), or myelin oligodendrocyte protein (MOG). Activated neuroantigen-specific T cells pass the blood-brain barrier, leading to focal mononuclear cell infiltration and demyelination. EAE can be induced in susceptible mouse strains by immunization with myelin-specific proteins in combination with adjuvant. In the SJL mouse model used in these studies, hind limb and tail paralysis is apparent by Day 10 after immunization, the peak of disease severity can be observed between Days 10 and 14, and a cycle of partial spontaneous remission followed by relapse can be observed up to Day 35.
In the SJL murine model of EAE, each mouse is sensitized with PLP/CFA. (150 μg PLP139-151 with 200 μg CFA in 0.05 ml of homogenate on four sites of hind flank for a total of 0.2 ml emulsion is used to induce EAE). […] In both protocols, clinical scores are monitored daily, and body weights are measured twice weekly. […]

Setting [3] is: Homo sapiens, T-cell, 24 h, IL-2 production, human primary T cells stimulated with αCD3 and αCD28, 24 hours, IL-2 by ELISA, read-out: EC50.
Setting [4] is: Homo sapiens, T-cell, human primary T cells stimulated with αCD3 and αCD28, IL-2 by ELISA, read-out: EC50 (blocked IL-2 production).
Where [5] appears, read: IL-2 production, human primary T cells stimulated with αCD3 and αCD28, 24 hours, IL-2 by ELISA, read-out: EC50.

In the case of `Cn1nnn(-c2cc(Nc3ncc(F)c(N[C@@H]4C[C@@H]5C[C@@H](O)CN5C(C)(C)C4)n3)c(F)cc2C2CC2)c1=O` [Compound 68, 1-(5-(4-((2R,7R,8aR)-2-hydroxy-octahydro-5,5-dimethylindolizin-7-ylamino)-5-fluoropyrimidin-2-ylamino)-2-cyclopropyl-4-fluorophenyl)-4-methyl-1H-tetrazol-5(4H)-one], the EC50 in assay [1] (setting [3]) was less than 0.5 µM; in assay [1] (setting [4]), less than 10 µM. For the compound `Cn1nnn(-c2cc(Nc3ncc(F)c(N[C@@H]4C[C@@H]5CCCN5C(C)(C)C4)n3)c(F)cc2OC2COC2)c1=O` [Compound 88, 1-(5-(4-((7R,8aS)-octahydro-5,5-dimethylindolizin-7-ylamino)-5-fluoropyrimidin-2-ylamino)-4-fluoro-2-(oxetan-3-yloxy)phenyl)-4-methyl-1H-tetrazol-5(4H)-one], the EC50 was less than 0.5 µM in assay [1] (setting [3]) and less than 10 µM in assay [1] (setting [4]).

Take `CC1(C)CC(Nc2nc(Nc3ccc(O[C@H]4CCOC4)c(C#N)c3)ncc2F)CC2CCCN21` (single isomer, unassigned) [Compound 62]: the EC50 in assay [1] (setting [5]) is less than 0.5 µM. Consider `C[C@H](O)COc1cc(F)c(Nc2ncc(C#N)c(N[C@@H]3C[C@@H]4CCCN4C(C)(C)C3)n2)cc1-n1nnn(C)c1=O` [Compound 79, 4-((7R,8aS)-octahydro-5,5-dimethylindolizin-7-ylamino)-2-(4-((S)-2-hydroxypropoxy)-2-fluoro-5-(4,5-dihydro-4-methyl-5-oxotetrazol-1-yl)phenylamino)pyrimidine-5-carbonitrile], for which the concentration for a half-maximal effect (EC50) in assay [1] (setting [3]) is less than 0.1 µM; in assay [1] (setting [4]) it was less than 10 µM. The like results for `Cn1nnn(-c2cc(Nc3ncc(F)c(NC4CC5CCCN5C(C)(C)C4)n3)ccc2OC2CCOCC2)c1=O` (racemic) [Compound 51, 1-(5-(5-fluoro-4-(octahydro-5,5-dimethylindolizin-7-ylamino)pyrimidin-2-ylamino)-2-(tetrahydro-2H-pyran-4-oxy)phenyl)-4-methyl-1H-tetrazol-5(4H)-one] were, in that order, less than 0.5 µM and less than 10 µM. Regarding `Cn1nnn(-c2cc(Nc3ncc(F)c(N[C@@H]4CCN5C(CCC5(C)C)C4)n3)c(F)cc2C2CC2)c1=O` (mixture of isomers) [Compound 25], in assay [1] (setting [5]), the 50% effective concentration (EC50) was less than 10 µM. As for `Cn1nnn(-c2cc(Nc3ncc(F)c(N[C@H]4C[C@@H]5CC(F)(F)CN5C(C)(C)C4)n3)c(F)cc2C2CC2)c1=O` [Compound 42, 1-(5-(4-((7S,8aR)-2,2-difluoro-octahydro-5,5-dimethylindolizin-7-ylamino)-5-fluoropyrimidin-2-ylamino)-2-cyclopropyl-4-fluorophenyl)-4-methyl-1H-tetrazol-5(4H)-one], the half-maximal effective concentration (EC50) in assay [1] (setting [3]) and in assay [1] (setting [4]) was less than 10 µM in each case. As to `Cn1nnn(-c2cc(Nc3ncc(F)c(N[C@@H]4C[C@@H]5CCCN5C(C)(C)C4)n3)c(F)cc2O)c1=O` [Compound 89, 1-(5-(4-((7R,8aS)-octahydro-5,5-dimethylindolizin-7-ylamino)-5-fluoropyrimidin-2-ylamino)-4-fluoro-2-hydroxyphenyl)-4-methyl-1H-tetrazol-5(4H)-one], the concentration giving a half-maximal response (EC50) in assay [1] (setting [3]) and in assay [1] (setting [4]) was less than 10 µM in each case.

Consider `CC1(C)C[C@H](Nc2nc(Nc3cc(-n4cnnn4)c(C4CC4)cc3F)ncc2F)C[C@@H]2CCCN21` (racemic) [Compound 53, (±)-N2-(4-cyclopropyl-2-fluoro-5-(1H-tetrazol-1-yl)phenyl)-5-fluoro-n^4-(octahydro-5,5-dimethylindolizin-7-yl)pyrimidine-2,4-diamine], for which, in assay [1] (setting [4]), the concentration for a half-maximal effect (EC50) was less than 10 µM. In the case of `Cn1nnn(-c2cc(Nc3ncc(F)c(N[C@@H]4C[C@@H]5CCCN5C(C)(C)C4)n3)c(F)cc2C2CC2)c1=O` [Compound 17, 1-(5-(4-((7R,8aS)-octahydro-5,5-dimethylindolizin-7ylamino)-5-fluoropyrimidin-2-yl-amino)-2-cyclopropyl-4-fluorophenyl)-4-methyl-1H-tetrazol-5(4H)-one], the EC50 in assay [1] (setting [3]) was less than 0.1 µM; in assay [1] (setting [4]), less than 10 µM. Besides, the 50% effective dose (ED50) in assay [2] was 30 mg/kg.
